Some results are limits rather than exact numbers.

These results are taken from paper PMC9146423, “Discovery of Nitro-azolo[1,5-a]pyrimidines with Anti-Inflammatory and Protective Activity against LPS-Induced Acute Lung Injury” (Pharmaceuticals, 2022).

Data set [1] relates to LPS-stimulated peritoneal macrophages of C57bl/6j mice. The data set can be described thus: Cell viability of LPS-stimulated macrophages, MTT test. It is filed as cell-based. The note with it: male, C57bl/6j, mouse, 24 h, 100 μM. On the technique in general: Tetrazolium assays rely on reduction of a dye to a coloured formazan, in cell work by metabolically active cells.
The test system is the same in data set [2]. The data set can be described thus: IL-6 secretion by LPS-stimulated peritoneal macrophages (ELISA). Format: cell-based. The note with it: Mus musculus, Peritoneal macrophage, 95% C.I. 1.43-9.87 μM. As to the method:
Peritoneal macrophages (PM) were isolated from the peritoneal exudate of 30 male C57bl/6j mice. To accumulate PM, 1 mL of 3% peptone solution was injected intraperitoneally. After 3 days, the mice were euthanized by cervical dislocation. Cells of peritoneal exudate were obtained by aseptic washing of the abdominal cavity with 5 mL of sterile Hanks’s solution (+4–6 °C) without calcium and magnesium ions. The total number and viability of cells were assessed in a Goryaev counting chamber (Russia) with a 0.4% trypan blue staining (Sigma-Aldrich, St. Louis, MO, USA). The cell concentration was adjusted to 1.0 × 10^6 cells/mL in DMEM (Gibco) supplemented with 2 mM L-glutamine (Gibco, Waltham, MA, USA), 10% heat-inactivated fetal bovine serum (BioClot, Bavaria, Germany), 100 U/mL penicillin, and […] streptomycin (Gibco) and plated 200 μL/well in 96-well transparent plates (SPL Life Sciences Co., Ltd., Pocheon-si, Korea). After 2 h at 37 °C in a humidified atmosphere with 5% CO2, the wells were washed to remove non-adherent cells. […]
The cell supernatant was collected and centrifuged at 1000 g for 20 min in a 2–16PK centrifuge (Sigma, Osterode am Harz, Germany). The concentrations of IL-6 and TNF-α were determined by ELISA using commercial kits (Cloud-clone, Houston, TX, USA) with a microplate reader Infinite M200 PRO (Tecan, Grödig, Austria).
(In general: ELISA stands for enzyme-linked immunosorbent assay.)

Data set [3] deals with peritoneal macrophages of C57bl/6j mice. The data set can be described thus: Yeast phagocytosis assay and macrophage spreading. Format: cell-based, mouse. As to the method:
Next, we evaluated lead compound 9g for immunodepressant activity in parallel with the reference drug dexamethasone. Yeast phagocytosis was assessed by microscopic examination as the number of phagocytes per 100 macrophages and as the number of phagocytosed yeast cells in each phagocyte. Cell viability was assessed as lactate dehydrogenase activity in cell supernatants, which correlates with increased cell membrane permeability.
Peritoneal macrophages of C57bl/6j mice were cultured in a 24-well plate at a volume of 500 μL/well (1 × 10^5 cells/mL) for 24 h. Test compounds or DMSO were added to wells in triplicate followed by 50 μL of 1% yeast suspension, and the plates were incubated for 40 min. After 24 or 72 h, the medium was removed. The cells were fixed with May–Grunwald methanol dye and stained with Azur-Eosin in Romanovsky’s modification for 45 min at room temperature, washed, air-dried, and analyzed using a microscope Mikmed-6 (Russia), equipped with a digital camera. The study was performed in three technical replicates and two series; 100 macrophages were processed in each sample to count the captured yeast cells. Macrophage spreading was assessed as a number of pseudopodia.

Data set [4] has the same test system. In words: Cytotoxicity, lactate dehydrogenase (LDH) activity in cell supernatants. It is filed as cell-based, mouse. How it is done:
(§1) Peritoneal macrophages (PM) were isolated from the peritoneal exudate of 30 male C57bl/6j mice. To accumulate PM, 1 mL of 3% peptone solution was injected intraperitoneally. After 3 days, the mice were euthanized by cervical dislocation. Cells of peritoneal exudate were obtained by aseptic washing of the abdominal cavity with 5 mL of sterile Hanks’s solution (+4–6 °C) without calcium and magnesium ions. The total number and viability of cells were assessed in a Goryaev counting chamber (Russia) with a 0.4% trypan blue staining (Sigma-Aldrich, St. Louis, MO, USA). The cell concentration was adjusted to 1.0 × 10^6 cells/mL in DMEM (Gibco) supplemented with 2 mM L-glutamine (Gibco, Waltham, MA, USA), 10% heat-inactivated fetal bovine serum (BioClot, Bavaria, Germany), 100 U/mL penicillin, and […] streptomycin (Gibco) and plated 200 μL/well in 96-well transparent plates (SPL Life Sciences Co., Ltd., Pocheon-si, Korea). After 2 h at 37 °C in a humidified atmosphere with 5% CO2, the wells were washed to remove non-adherent cells. After 24 h of incubation, 20 μL of the supernatants were substituted with 20 μL of solutions of test compounds, followed by E. coli O127:B8 LPS (100 ng/mL final concentration) after 30 min. The experiments were run in 3 independent replicates.
(§2) The activity of lactate dehydrogenase (LDH) in a cell culture medium served as a marker of membrane permeability and cell death. […] Then, 25 μL of a 6.48 mM pyruvate solution was added to the mixture. The optical density was followed at a wavelength of 340 nm for 20 min. The MTT-test was performed 24 h after incubations of cells with tested compounds. Briefly, 20 μL of MTT solution was added to each well, incubated at 37 °C in a humidified atmosphere containing 5% CO2 for 4 h. The culture medium was removed, the cells were lysed, and formazan crystals were dissolved in 150 μL DMSO. The plates were shaken at room temperature for 10 min, and the optical density was measured in a microplate reader Infinite M200 PRO (Tecan, Grödig, Austria) at a wavelength of 565 nm.

Assay in data set [5]: as above
The note with it: male, C57bl/6j, mouse, LPS-stimulated peritoneal macrophages. It is filed as cell-based, mouse. As to the method: as §1, §2

One may read the IC50 as the concentration needed to halve the response being measured. A higher IC50 goes with weaker potency. In general, CC50 refers to the concentration giving 50% cytotoxicity. Read a low CC50 as greater toxicity to the cells. With `Cc1nc2nnnn2c(NCCc2ccc(O)cc2)c1[N+](=O)[O-]` [Compound 9g, N-[2-(4-Hydroxyphenyl)ethyl]-5-methyl-6-nitrotetrazolo-[1,5-a]pyrimidin-7-amine], the “Cell Viability vs. LPS Control, MTT Test” value in data set [1] was determined as 84.65 ± 5.83%. In data set [2], this compound registered an IC50 of 3.72 µM. For the same compound, the Suppression of phagocytosis entry in data set [3] (after 24-h of incubation, data not shown) is given as “not”. Moreover, in data set [3] (after 72 h of incubation), the “Decrease of the mean number of phagocytosed yeast cells” value was found to be 16% and the “Macrophage phagocytic activity (in words)” value is recorded as “preserved macrophage phagocytic activity”. In data set [3] (yeast-stimulated, visually scored), the Macrophage spreading result is on record as “reduced it to a nearly unstimulated level”. The “Cytotoxic properties during the phagocytosis experiment (LDH)” value in data set [4] (up to 72 h of incubation) is on record as “No cytotoxic properties were noted”. In addition, the “Effect on viability of the macrophages” value in data set [4] (up to a concentration of 50 μM) was “did not affect the viability”. The CC50 at 24 h in data set [5] was greater than 100 µM.
